According to patent US20230173029A1, “TREATMENT OF CARDIAC REMODELLING” (UNIVERSITETET I OSLO, priority 2020, published 2023):

Tests used:
[1] = system: Dahl salt-sensitive (Dahl/SS) male rats; experiment: Tail-cuff blood pressure measurement in hypertensive Dahl/SS rats; type: in vivo, rat; details: for DBP (diastolic blood pressure) / MAP (mean arterial pressure) / SBP (systolic blood pressure): HT Dahl/SS rats on high salt diet, at 6 weeks, mean ± SEM
Procedure: (§1) A total of 29 adult Dahl salt-sensitive (Dahl/SS) male rats with an initial weight of 150 to 200 g were included in the study. Rats were purchased from Charles River Laboratories (USA) and housed in a room with a 12/12-hour light cycle, a temperature of 21° C., and a humidity of 55%. Rats were maintained on a normal salt diet up to seven weeks of age. Twenty-two Dahl/SS were then randomly switched to a high salt diet for 6 weeks to induce hypertension, whilst 7 rats were kept normotensive (NT) on normal salt diet. Drinking water and food was provided ad libitum.
After 2 weeks of high salt diet, 15 hypertensive (HT) rats were started on treatment with proANP31-67. Rats treated with proANP31-67 received one of two dosages: 50 ng/kg/day (n=8) or 100 ng/kg/day (n=7). A total of 14 rats received only vehicle: control rats on a normal salt diet (n=7); and HT rats on a high salt diet (n=7). Rats were randomly assigned to the 3 groups (i.e. control normal salt; high salt untreated; high salt plus treatment).
Drug or vehicle was delivered via Alzet osmotic mini-pumps (Model 2004; mean pumping rate […], mean fill volume […]) implanted subcutaneously (as instructed by the manufacturer) for 28 days. Animals were treated with buprenorphine (0.05 mg/kg s.c.) as analgesic 30 minutes before and up to 1 day following implantation of pumps.
Measurement was carried out using the CODA non-invasive blood pressure acquisition system for rats (Kent Scientific Corporation). Animals were kept in restraint tubes and placed over a heating platform (preheated to 33 to 35° C.) and blood pressure measured by a tail-cuff system. Each recording session consisted of 25 acclimation cycles (not used in the analysis), followed by 20 inflation and deflation cycles (the occlusion cuff is inflated to 250 mm Hg and deflated over 20 s). Rats were trained for at least 5 consecutive days before blood pressure measurements were recorded.
Experiments were performed as described above in Example 1, using a group of 8 Dahl/SS rats which, at 7 weeks of age, were switched to a high salt diet as described above. After 2 weeks of high salt diet, this group was started on proANP31-67 treatment. The rats were administered proANP31-67 at a renal sub-therapeutic dosage of 25 ng/kg/day.

Myh7 = Myh7 gene expression in left ventricle tissue by qPCR; type: in vivo, rat; details: HT Dahl/SS rats
Procedure: as §1
After 2 weeks of high salt diet, 15 hypertensive (HT) rats were started on treatment with proANP31-67. Rats treated with proANP31-67 received one of two dosages: 50 ng/kg/day (n=8) or 100 ng/kg/day (n=7). […]
Total RNA was extracted from left ventricle tissue using an RNeasy Fibrous Tissue Mini Kit (Qiagen, Cat. #74704). RNA concentration and quality was assessed by NanoDrop ND-1000 Spectrophotometer (Thermo Fisher Scientific). cDNA synthesis was performed using an iSCRIPT synthesis kit (Bio-Rad). Transcript levels of Mhy7 (Rn00568328_m1) and Rpl32 (Rn00820748_g1) were determined using TaqMan assays (Applied Biosystems) detected on a QuantStudio3 (Thermo Fisher Scientific) and analysed using QuantStudio™ Design (Thermo Fisher Scientific). Mhy7 mRNA levels were calculated by the ΔΔCt method and normalized to Rpl32 transcript value. […]

SMAD2 = experiment: Western blot of nuclear phosphorylated SMAD2 in left ventricle tissue; type: in vivo, rat; details: HT Dahl/SS rats, 50 or 100 ng/kg/day s.c. (pooled), FIG. 2E
Procedure: as §1
After 2 weeks of high salt diet, 15 hypertensive (HT) rats were started on treatment with proANP31-67. […]
Enriched nuclear protein fraction from left ventricle tissue was isolated using Compartment Protein Extraction Kit (Merck Millipore, Cat. #2145), according to the manufacturer's specifications. Protein concentration was measured by BCA assay kit (Thermo Fisher Scientific, Cat. #23225). […] Membranes were analysed with rabbit anti-SMAD2/3 (1:1000, Cell Signaling Technology, Cat. #8685) and rabbit anti-phospho-SMAD2 (Ser465/467) (1:500, Cell Signaling Technology, Cat. #3108). The membranes were developed using the ECL system (Pierce Protein Research Products) and ChemiDoc XRS (Bio-Rad), and quantified using Image Lab™ software (version 6.0.1, Bio-Rad).

[2] = system: rat neonatal cardiomyocytes; experiment: In vitro [3H]leucine incorporation in ANGII-stimulated neonatal cardiomyocytes; type: cell-based; details: 24 h
Procedure: Primary cultures of rat cardiomyocyte cells were prepared as previously described (Larsen et al., Cardiovascular Research 80(1): 47-54, 2008). In brief, hearts from 1-3 day old Wistar rats (Taconic), were isolated by […] and pancreatin digestion. Cardiomyocytes were separated from noncardiomyocytes by differential attachment to uncoated culture flasks (90151; Techno Plastic Products). Cardiomyocytes were allowed to attach to 6- or 12-well culture plates (Corning International, Corning, N.Y.) coated with gelatine/fibronectin (G-1890/F1141; Sigma, St. Louis, Mo.) overnight in plating medium (2 or 1 ml) at a density of 2.5×10^5 cells/ml medium [DMEM (41965; GIBCO-BRL, Invitrogen) supplemented with penicillin/streptomycin/glutamine (G6784; Sigma), medium 199 (31150; GIBCO-BRL), HEPES (15630; GIBCO-BRL), horse serum (14-703E; Bio-Whittaker, Lonza), and fetal calf serum (14-701E; Bio-Whittaker)]. […]
5 μCi/ml [3H]leucine (American Radiolabeled Chemicals) were added at the same time as ANG II and the cells were washed six times in 95% EtOH before being harvested in 0.2 M NaOH 24 h after stimulation, as previously described (Halvorsen et al., Journal of Lipid Research 39(4): 901-912, 1998). […] [3H]leucine incorporation was quantified by measuring counts per minute in duplicates from each sample with the Wallac Winspectral 1414 liquid scintillation counter (PerkinElmer). […]

[3] = 50 or 100 ng/kg/day s.c. (pooled) for 28 days

proANP31-67: Human proANP31-67, linear peptide fragment of proANP consisting of SEQ ID NO: 1; also known as vessel dilator, VSDL (EVVPPQVLSEPNEEAGAALSPLPEVPPWTGEVSPAQR; listed as Homo sapiens)
DBP (diastolic blood pressure) ([1]; 25 ng/kg/day s.c.): 120.1 ± 4.7 mmHg
MAP (mean arterial pressure) ([1]; 25 ng/kg/day s.c.): 138.6 ± 4.1 mmHg
SBP (systolic blood pressure) ([1]; 25 ng/kg/day s.c.): 176.5 ± 3.4 mmHg
DBP (diastolic blood pressure) [1, 3]: 128.2 ± 2.3 mmHg
MAP (mean arterial pressure) [1, 3]: 144.9 ± 2.3 mmHg
SBP (systolic blood pressure) [1, 3]: 179.3 ± 2.4 mmHg
effect on systolic blood pressure ([1]; HT Dahl/SS rats, 25 ng/kg/day s.c., FIG. 5A): no effect
effect on elevated systolic blood pressure ([1]; HT Dahl/SS rats, 50 or 100 ng/kg/day s.c. (pooled), FIG. 1A): not lowered
expression of the Myh7 gene associated with adverse cardiac hypertrophy (Myh7; 25 ng/kg/day s.c., FIG. 5F): attenuated
expression of the Myh7 gene associated with adverse cardiac hypertrophy (Myh7; 50 or 100 ng/kg/day s.c. (pooled), FIG. 1F): attenuated
SMAD2 phosphorylation (nuclear) compared to untreated HT rats (SMAD2): significantly lower
ANGII-induced hypertrophy as indexed by [3H]-leucine incorporation ([2]; 37.5 ng/ml proANP31-67, 1 μM ANG II): prevented
ANGII-induced hypertrophy as indexed by [3H]-leucine incorporation ([2]; 150 ng/ml proANP31-67, 1 μM ANG II): prevented
